# Results published in publication PMC12922749 (Science Advances, 2026).
# Where two headings read alike, the source gives them in different places.
# Tests used:
# Assay in all cases: SPR
# Type in all cases: binding
# Nur77 [1] = biological target: Nur77
# Nur77 [2] = biological target: Nur77; remark: listed apart in the source
# Nur77 [3] = biological target: Nur77; remark: listed apart in the source
compound,measurement,setting,value
CCCCC/C=C\C[C@@H](O)/C=C/C=C\C/C=C\CCCC(=O)O [12R-HETE],Kd,Nur77 [1],1.44 µM
CCCCC/C=C\C[C@H](O)/C=C/C=C\C/C=C\CCCC(=O)O [12S-HETE],Kd,Nur77 [2],13.9 µM
CCCCCCCC(=O)c1c(O)cc(O)cc1CC(=O)OCC [Cytosporone B],Kd,Nur77 [3],28.9 µM
